Results taken from BindingDB's records for patent US20250250264 (Wuhan Humanwell Innovative Drug Research And Development …, 2025).

Target: T1, Kinesin-like protein KIF18A [1-467] (Human, UniProt Q8NI77)
T1 construct: 1-467
T1 sequence (Q8NI77 whole entry): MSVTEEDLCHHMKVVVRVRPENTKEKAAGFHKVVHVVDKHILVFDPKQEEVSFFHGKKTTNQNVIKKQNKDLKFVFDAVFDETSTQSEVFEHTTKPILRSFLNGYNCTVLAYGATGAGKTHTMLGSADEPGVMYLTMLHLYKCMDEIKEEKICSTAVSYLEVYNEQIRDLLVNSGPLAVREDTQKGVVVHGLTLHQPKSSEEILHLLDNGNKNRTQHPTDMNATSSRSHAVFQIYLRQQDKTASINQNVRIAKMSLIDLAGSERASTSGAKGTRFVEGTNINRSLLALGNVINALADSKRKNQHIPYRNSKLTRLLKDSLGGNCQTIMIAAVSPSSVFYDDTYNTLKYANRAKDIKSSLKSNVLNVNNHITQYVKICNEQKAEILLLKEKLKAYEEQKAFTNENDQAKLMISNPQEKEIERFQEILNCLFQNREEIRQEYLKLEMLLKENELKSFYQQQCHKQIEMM
Test: Assay on Inhibition of KIF18A Enzymatic Activity
Method: The reaction system consisted of a test compound, the recombinant protein KIF18A (aa 1-467), ATP (Promega Inc), and an assay buffer. The test compound was prepared into a 0.5 mM stock solution using DMSO (Sigma Inc) and then serially diluted in DMSO. The assay buffer consisted of an aqueous solution of 15 mM Tris, 10 mM MgCl2 (Sigma Inc), 0.01% Pluronic F-68 (Life Technologies Inc), 1 μM paclitaxel (Cytoskeleton Inc), 30 μg/mL porcine tubulin (Cytoskeleton Inc), and 2% DMSO. The KIF18A protein (final concentration: 80 nM) and the compound at different concentrations (1 μL) were added to the prepared assay buffer (50 μL), and the mixture was incubated at room temperature for 15 min. Then, ATP (final concentration: 80 μM) was added to the reaction mixture, and the resulting mixture was incubated at room temperature for 3 h. After the reaction was completed, 5 μL of the ADP-Glo™ reagent and 2.5 μL of the reaction mixture were added to a 384-well plate (Grenier Inc). The resulting mixture was mixed homogeneously, then sealed by an aluminum foil sealing film, and incubated at room temperature in the dark for 40 min. […] After all reactions were completed, the luminescence values of the wells were read on a microplate reader (Molecular Device_SpectraMax Id5), and the inhibition ratios were calculated.

Structure (SMILES) | IC50 [µM]
Cc1cc(-c2nnc(-c3ccc(NS(=O)(=O)CCO)cc3N3CCC4(CC3)CC4)o2)c(F)c(N2CCC(F)(F)CC2)n1 [US20250250264, Compound I-53] | 0.025
Cc1cc(-c2nnc(-c3ccc(NS(=O)(=O)CCO)cc3N3CCC4(CC3)CC4)s2)nc(OCCC(F)(F)F)n1 [US20250250264, Compound I-99] | 0.003
